Data published in patent US20260224538A1 (Purdue Research Foundation, priority 2023, published 2026).
One block for each compound: values may come before it.

Experiments:
[1] = molecular target: T1, IAPP (Homo sapiens, UniProt P10997); test: TEM of IAPP fibrils; format: biochemical; settings: compound 100 μM, IAPP 10 μM, PBS
T1 construct: Human islet amyloid polypeptide (IAPP) was procured from AnaSpec; purchased AnaSpec; host or cells: synthetic peptide
T1 sequence (P10997 34-70 limits assumed): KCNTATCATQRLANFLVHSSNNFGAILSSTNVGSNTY
Experimental: (§1) Transmission electron microscopy (TEM). After performing analysis with ThT fluorescence assay, TEM was utilized to detect fibril formation. A volume of 10 μL was applied to a 400-mesh Formvar-carbon-coated copper grid (Electron Microscopy Sciences, Hatfield, PA). The grids were incubated for 1 minute and washed three times with distilled water. They were carefully air-dried and incubated for 1 minute in a fresh solution of 1% uranyl acetate. Samples were air-dried and observed using a transmission microscope. Visualization of the grids was performed with TEM (JEOL 1400 Flash, Japan). Acquisition of pictures was performed with settings of accelerating voltage of 100 kV and magnification of 25 k and/or 40 k.

[2] = molecular target: T2, TTR101-125 (Homo sapiens, UniProt P02766); test: ThT fluorescence assay of TTR101-125 fibril formation; format: biochemical
T2 construct: TTR fragments 1-25, 26-50, 51-75, 76-100, 81-105, 101-125, and 101-125 were obtained from GenScript; purchased GenScript; host or cells: synthetic peptide
Experimental: (§2) Thioflavin-T (ThT) fluorescence assays. Thioflavin-T (ThT) fluorescence assays were used to monitor fibril formation of recombinant Ap (fragments 1-40 and 1-42), recombinant α-syn, recombinant tau isoform 2N4R, synthetic IAPP, and synthetic TTR peptides treated with BTA and its derivatives. The IAPP ThT assay was performed in 10 mM PBS (pH 7.4) at a final concentration of 10 μM for both IAPP and ThT as published previously. Aβ fragments 1-40 and 1-42 were tested at 7 μM in 10 mM of PBS using ThT at a final concentration of 20 μM. Kinetics of α-syn fibrillization were performed as published previously.^36-37 TTR fragment kinetics of fibril formation were assessed at 10 μM in 100 mM sodium acetate buffer supplemented with 100 mM KCl and 1 mM ethylenediaminetetraacetic acid (EDTA) (pH 4) with 20 μM ThT. The fluorescence emission experiments were performed with the excitation and emission wavelengths set at 440 and 485 nm, respectively, with a Synergy HT multi-mode microplate reader (BioTek, Winooski, VT). Samples were measured in three replicates, and the experiments were repeated three times using at least two different stock solutions. For each time point, arbitrary units of fluorescence were calculated from the mean values normalized against the maximum value in each completed assay. The lag time for each condition was calculated as previously described. All results contained in histograms were presented as mean±SEM. Data were analyzed by the one-way analysis of variance with Dunnett's multiple comparisons between controls and compounds. Differences were considered statistically significant at p<0.05.

[3] = molecular target: T3, tau isoform 2N4R (Homo sapiens, UniProt P10636); test: PICUP, tau isoform 2N4R oligomerization; format: biochemical; settings: compound 50 μM
T3 construct: made in house; host or cells: E. coli BL21(DE3)
T3 sequence (P10636 1-441 isoform P10636-8): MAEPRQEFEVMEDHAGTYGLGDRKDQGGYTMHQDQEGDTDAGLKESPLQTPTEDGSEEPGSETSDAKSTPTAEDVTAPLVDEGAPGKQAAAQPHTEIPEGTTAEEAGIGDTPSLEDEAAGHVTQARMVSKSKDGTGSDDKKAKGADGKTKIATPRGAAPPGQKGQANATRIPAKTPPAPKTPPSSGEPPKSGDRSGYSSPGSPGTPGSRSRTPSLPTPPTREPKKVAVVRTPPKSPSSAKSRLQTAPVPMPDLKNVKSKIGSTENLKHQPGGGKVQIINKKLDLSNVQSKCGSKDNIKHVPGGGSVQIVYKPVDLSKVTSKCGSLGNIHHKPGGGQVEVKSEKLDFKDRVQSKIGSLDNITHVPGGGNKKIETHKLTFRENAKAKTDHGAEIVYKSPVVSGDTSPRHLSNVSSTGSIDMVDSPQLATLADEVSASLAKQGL
Experimental: (§3) The bacterial expression plasmid consisting of the vector pRK172 carrying a cDNA encoding the human Tau 2N4R isoform was obtained from Dr. David Eliezer (Weill Cornell Medicine, New York, NJ). For protein expression, E. coli BL21(DE3) cells were transformed with the plasmid and grown in LB media supplemented with ampicillin (100 μg/mL). Protein over-expression was induced by the addition of 1 mM IPTG for 4 hours at 37° C., and cells were pelleted by centrifugation at 6,000 g for 15 minutes at 4° C. The cells were resuspended in lysis buffer (20 mM MES, 400 mM NaCl, 0.2 mM MgCl2, 1 mM EGTA, protease inhibitor cocktail (P8340, Sigma Aldrich), 0.25 mg/mL lysozyme, and 1 μg/mL DNase 1, pH 6.8) and lysed by a French press cell disruptor at 4° C., after which the lysate was boiled for 20 minutes. Denatured proteins were pelleted by centrifugation at 30,000 g for 30 minutes at 4° C., and the supernatant was dialyzed overnight against cation exchange buffer (20 mM MES, 50 mM NaCl, 1 mM MgCl2, 1 mM EGTA, 2 mM DTT, 0.1 mM PMSF, pH 6.8). The dialysate was loaded onto a HiPrep SP HP column, and proteins were eluted with a linear gradient ranging from 50 mM to 1 M NaCl. Fractions containing tau isoform 2N4R were pooled, and the resulting protein solution was dialyzed against PBS (pH 7.4) and stored at −80° C.
(§4) Photo-induced Cross-linking of Unmodified Proteins (PICUP) Assay. To induce oligomerization by cross-linking, α-syn (from Rpeptide, LLC) and tau isoform 2N4R were diluted in 10 mM phosphate buffer (pH 7.4) to reach a final concentration of 10 μM. Different compounds were added to the protein solution at a final concentration of 50 μM, resulting in a molar ratio of 1:5. To confirm the gradual effect of the compounds on the inhibition of α-syn oligomerization, the compounds were tested at final concentrations of 3.125, 6.25, 12.5, 25, and 50 μM. The controls consisted of samples without light exposition, without Ru(bpy) or ammonium persulfate, and without compound (i.e., 0.125% DMSO). The cross-linking reaction was initiated by the addition of 2 μL of Ru(bpy) (300 μM final concentration) and 2 μL ammonium persulfate (6 mM final concentration). Samples were irradiated immediately. Light exposure was of a one-second duration for α-syn and a three-second duration for tau isoform 2N4R, with a 53 W (120 V) incandescent lamp installed in a homemade dark-box. Each tube contained a final volume of 20 μL. After irradiation, 8.3 μL of Laemmli loading buffer containing 15% β-mercaptoethanol were immediately added to the solution, followed by incubation at 95° C. for 10 minutes. The cross-linked samples were separated on a 16% SDS-PAGE gel and visualized by Coomassie blue staining.

[4] = molecular target: T4, Aβ1-42 (Homo sapiens, UniProt P05067); test: ThT fluorescence assay of Aβ1-42 fibril formation; format: biochemical; settings: screen on prone-to-aggregate proteins (FIG. 2A, FIG. 4A); Aβ 7 μM
T4 construct: α-syn, Aβ1-40, Aβ1-42 were procured from rPeptide; purchased rPeptide
T4 sequence (P05067 672-713 limits assumed): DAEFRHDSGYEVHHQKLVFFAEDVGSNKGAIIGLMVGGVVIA
Experimental: as §2

[5] = molecular target: T5, TTR81-127 (Homo sapiens, UniProt P02766); test: TEM of TTR81-127 fibrils; format: biochemical; settings: compound 100 μM, TTR81-127 10 μM, sodium acetate buffer pH 4
T5 construct: TTR fragment 81-127 was obtained from AnaSpec; purchased AnaSpec; host or cells: synthetic peptide

[6] = molecular target: T6, transthyretin fragment peptide (TTR81-127) (Homo sapiens, UniProt P02766); test: ThT fluorescence assay of TTR81-127 fibril formation; format: biochemical; settings: for TTR81-127 fibril formation (ThT): compound 100 μM, molar ratio 1:10; for remaining activity at 100 µM: compounds at 100 μM, TTR81-127 10 μM, control 0.25% DMSO, read-out: ThT TTR81-127 (%), maximum thioflavin T (ThT) intensity in percentage
T6 construct: TTR fragment 81-127 was obtained from AnaSpec; purchased AnaSpec; host or cells: synthetic peptide
Experimental: as §2

[7] = test system: M17D neuroblastoma cells that express inclusion-prone αS-3K::YFP; test: α-Syn inclusion-forming neuroblastoma cell experiment; format: cell-based; settings: 40 μM; t=96 hours
Experimental: α-Syn (or αS) inclusion-forming neuroblastoma cell experiment. Dox-inducible neuroblastoma cells M17D-TR/αS-3K::YFP have been used previously. 96-well plates were used with a cellular density of 30,000 cells per well. Compounds were added […], and αS-3K::YFP transgene expression was induced […]. Induction was done by adding 1 μg per mL (final concentration) dox to culture media. Cells were incubated in the Incucyte Zoom 2000 platform (Essen Biosciences), and images (green, bright field) were taken continuously. Endpoint analysis of inclusion formation or growth was performed 48 hours after induction (96 hours after plating). The Incucyte processing definition ‘Inclusions’ was created as follows: Parameters, Fixed Threshold, Threshold (GCU) 50; Edge Split On, Edge Sensitivity 100; Cleanup, Hole Fill (μm^2): 10, Adjust Size (pixels): 0; Filters, Area (μm^2): max 50, Mean Intensity: min 60, Integrated Intensity: min 2000. Cell confluence was measured by the processing definition ‘Cells’: Parameters, Segmentation Adjustment 0.7; Cleanup, all parameters set to 0; Filters, Area (μm^2): min 345.00. As described previously for the evaluation of protein expression by SDS-PAGE and Western Blotting in the LiCor system, αS-specific monoclonal antibody 4B12 (Thermofisher, Waltham, MA; 1:1000) and a polyclonal antibody to GAPDH (Sigma-Aldrich, St. Louis, MO, G9545; 1:5000) were used.

[8] = molecular target: T7, α-syn (Homo sapiens, UniProt P37840); test: Photo-induced cross-linking of unmodified proteins (PICUP), α-syn oligomerization; format: biochemical; settings: compound 50 μM, molar ratio 1:5 (protein:compound)
T7 construct: purchased rPeptide
Experimental: as §4

[9] = molecular target: T7, α-syn; test: Transmission electron microscopy (TEM) of α-syn fibrils; format: biochemical; settings: compound 100 μM
Experimental: as §1

[10] = molecular target: T8, α-synuclein (α-syn) (Homo sapiens, UniProt P37840); test: Thioflavin-T (ThT) fluorescence assay of α-syn fibril formation; format: biochemical; settings: compounds at 100 μM, α-syn 6.25 μM, control 0.25% DMSO; for remaining activity at 100 µM: read-out: ThT a-Syn (%), maximum thioflavin T (ThT) intensity in percentage
T8 construct: purchased rPeptide
Experimental: as §2
(§5) Compounds with the highest anti-fibrillary activity were tested at 3.125, 6.25, 12.5, 25, 50, and 100 μM to obtain dose-response curves with prepared α-syn and 2N4R tau at 6.25 μM and 6 μM, respectively. Compounds were tested with α-syn using a previously published procedure. Concerning the tau (isoform 2N4R) kinetics of fibril formation, measurements of ThT fluorescence were performed with a solution of the protein diluted to a final concentration of 6 μM in PBS (pH 7.4) supplemented with 1.5 μM heparin, 20 μM ThT, 2.5 mM DTT, and 100 μM compound. Aliquots of the diluted protein solution (100 μL each) were pipetted into the wells of a 96-well plate, and a Teflon ball was added to each well. The plate was incubated at 37° C. with constant shaking at 1,000 rpm in a Tecan Spark plate reader. ThT fluorescence was measured every 15 minutes with excitation and emission wavelengths of 440 nm and 480 nm, and the data were plotted using GraphPad Prism.

[11] = molecular target: T3, tau isoform 2N4R; test: ThT kinetics of tau isoform 2N4R fibril formation; format: biochemical; settings: tau 6 μM, compound 100 μM
Experimental: as §3, §5

[12] = compound 100 μM, molar ratio 1:10

SMILES: Nc1ccc(-c2nc3ccccc3s2)cc1 [BTA, 4-(2-benzothiazolyl)aniline, reference compound]
IAPP fibrils by TEM [1]: no such branching was observed
TTR101-125 fibril formation (ThT) ([2]; compound 25 μM, molar ratio 1:2.5): continued to reduce TTR101-125 fibrils
TTR101-125 fibril formation (ThT) [2, 12]: reduced fibril formation
tau isoform 2N4R oligomer formation (PICUP) [3]: not successful in preventing oligomerization
thioflavin T fluorescence intensity, Aβ1-42 [4]: 22.59±0.71%
TTR81-127 fibrils by TEM [5]: reduced fibril formation
TTR81-127 fibril formation (ThT) [6]: reduced fibril formation
cell confluence [7]: reduction in confluence
number of αS-3K::YFP inclusions [7]: did not affect the number of inclusions
α-syn oligomer formation (PICUP) [8]: not successful in preventing oligomerization
α-syn fibrils by TEM [9]: no such branching was observed

SMILES: CC(=O)c1ccc(NC(=S)Nc2ccc(-c3nc4ccccc4s3)cc2)cc1 [Compound 2, 1-(4-acetylphenyl)-3-[4-(1,3-benzothiazol-2-yl)phenyl]thiourea]
TTR101-125 fibril formation (ThT) ([2]; compound 50 μM, molar ratio 1:5): weak in inhibiting TTR101-125 fibril formation
TTR101-125 fibril formation (ThT) [2, 12]: to a lesser extent, compound 2 reduced fibril formation
TTR81-127 fibril formation (ThT) [6]: to a lesser extent, compound 2 reduced fibril formation

SMILES: O=[N+]([O-])c1ccc2snc(Nc3nc(Cl)nc(Cl)n3)c2c1 [Compound 6, N-(4,6-dichloro-1,3,5-triazin-2-yl)-5-nitro-1,2-benzothiazol-3-amine]
remaining activity at 100 µM [6]: 82.6 ± 6%
remaining activity at 100 µM [10]: > 100%

SMILES: O=[N+]([O-])c1ccc2snc(Nc3ncnc(Cl)n3)c2c1 [Compound 7, N-(4-chloro-1,3,5-triazin-2-yl)-5-nitro-1,2-benzothiazol-3-amine]
remaining activity at 100 µM [6]: > 100%
remaining activity at 100 µM [10]: > 100%

Continued, in another order:

remaining activity at 100 µM [6]: 95.2 ± 1.2%
remaining activity at 100 µM [10]: > 100%
SMILES: O=C(Cc1ccccc1)Nc1nsc2ccc([N+](=O)[O-])cc12 [Compound 8, N-(5-nitro-1,2-benzothiazol-3-yl)-2-phenylacetamide]

remaining activity at 100 µM [6]: 69 ± 0.1%
remaining activity at 100 µM [10]: > 100%
SMILES: O=C(Cc1cccs1)Nc1nsc2ccc([N+](=O)[O-])cc12 [Compound 9]

remaining activity at 100 µM [6]: 90.2 ± 2.7%
ThT a-Syn (%), maximum thioflavin T (ThT) intensity in percentage [10]: 55.6 ± 3.2%
remaining activity at 100 µM [10]: 55.6 ± 3.2%
SMILES: CC(=O)Nc1nsc2ccc([N+](=O)[O-])cc12 [Compound 10, N-(5-nitro-1,2-benzothiazol-3-yl)acetamide]
production of tau isoform 2N4R fibrils (ThT kinetic aggregation curves) [11]: reduced the production of tau isoform 2N4R fibrils

remaining activity at 100 µM [6]: 59.7 ± 2.6%
ThT a-Syn (%), maximum thioflavin T (ThT) intensity in percentage [10]: 45.3 ± 12.9%
remaining activity at 100 µM [10]: 45.3 ± 12.9%
SMILES: O=C(CCl)Nc1nsc2ccc([N+](=O)[O-])cc12 [Compound 11, 2-chloro-N-(5-nitro-1,2-benzothiazol-3-yl)acetamide]

remaining activity at 100 µM [6]: 63 ± 17.4%
remaining activity at 100 µM [10]: > 100%
SMILES: CS(=O)(=O)N(c1nsc2ccc([N+](=O)[O-])cc12)S(C)(=O)=O [Compound 12, N-methanesulfonyl-N-(5-nitro-1,2-benzothiazol-3-yl)methanesulfonamide]
